# Assay results as given in patent US8507538B2, “Selective heterocyclic sphingosine 1 phosphate receptor modulators” (Receptos, Inc., priority 2009, dated 2013).
# Structures can show the parent of a compound that is named as a salt.
# Target: S1P1/EDG1 (Homo sapiens, UniProt P21453)
# Assay: S1P1 CRE-bla CHOK1 reporter assay (inhibition of Forskolin induced cAMP)
# Format: cell-based
# Conditions: agonist activity range, Table 2; read-out: S1P1 ACTIVITY
# Excerpt: A mammalian expression plasmid containing S1P1/EDG1 cloned into pcDNA3.1 was purchased from Missouri S&T cDNA Resource Centre. The nucleotide and amino acid sequence of human S1P1/EDG1 are published in Hla and Maciag (J Biol Chem, 265(1990), 9308-9313). S1P1/pcDNA3.1 was transfected into the CRE-bla CHO K1 (Invitrogen) cell line, and stable single cell clones were selected using standard techniques. Expression of functional SIP1/EDG1 receptor was confirmed by cell surface FACS with a S1P1 antibody (R&D Systems, clone 218713) and S1P-mediated inhibition of Forskolin induced cAMP.
# Cells were seeded into 384-well black wall/clear bottom plates at 10^4 cells/well/19.5 μl assay media (DMEM-phenol free, 0.5% charcoal/dextran stripped serum, 2 mM glutamine, 0.1 mM NEAA, 1 mM Na-Pyruvate, 25 mM Hepes) and incubated for 18 hrs at 37° C. in 5% CO2. Dose response curves (10-point) were generated in 10 mM Hepes, 0.1% Pluronic F127, in the presence of Forskolin. Cells were treated with 0.5 μl compound in the presence of 2 μM Forskolin for 4 hrs at 37° C. The FRET-based β-lactamase fluorescent substrate (LiveBLAzer™ FRET B/G Loading Kit CC4-AM; Invitrogen) was prepared according to manufacturer's directions, and incubated with cells for 2 hrs at room temperature. Plates were read at Ex:410/Em:458 and Ex:410/Em:522, and the response ratio determined. Data was analyzed by non-linear regression to determine the EC50 for inhibition of Forskolin induced cAMP.
# S1P1/EDG1, sequence (P21453 whole entry): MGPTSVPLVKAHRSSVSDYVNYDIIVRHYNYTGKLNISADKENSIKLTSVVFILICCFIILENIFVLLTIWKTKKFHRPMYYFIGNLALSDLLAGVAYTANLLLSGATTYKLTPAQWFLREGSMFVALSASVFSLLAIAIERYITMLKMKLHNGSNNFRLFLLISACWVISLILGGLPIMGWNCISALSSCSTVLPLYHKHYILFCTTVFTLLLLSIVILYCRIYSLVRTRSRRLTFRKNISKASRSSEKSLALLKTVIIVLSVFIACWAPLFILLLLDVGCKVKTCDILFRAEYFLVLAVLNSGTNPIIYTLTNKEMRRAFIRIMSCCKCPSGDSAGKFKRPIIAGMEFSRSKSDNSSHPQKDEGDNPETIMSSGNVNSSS
row,Structure (SMILES),EC50
1,"CC(C)Oc1ccc(-c2nnc(-c3cccc4c3CC[C@@H]4N)s2)cc1C#N [Compound 4, (S)-5-(5-(1-amino-2,3-dihydro-1H-inden-4-yl)-1,3,4-thiadiazol-2-yl)-2-isopropoxybenzonitrile hydrochloride]",0.5 to 5 nM
2,CCOc1ccc(-c2nnc(-c3cccc4c3CC[C@@H]4N)s2)cc1OCC [Compound 6],0.5 to 5 nM
3,"CC(C)Oc1ccc(-c2nnc(-c3cccc4c3CC[C@@H]4NC(=O)CO)s2)cc1C#N [Compound 7, (S)-N-(4-(5-(3-cyano-4-isopropoxyphenyl)-1,3,4-thiadiazol-2-yl)-2,3-dihydro-1H-inden-1-yl)-2-hydroxyacetamide]",< 0.05 nM
4,"CC(C)Oc1ccc(-c2nnc(-c3cccc4c3CC[C@H]4NC(=O)CO)s2)cc1C#N [Compound 8, (R)-N-(4-(5-(3-cyano-4-isopropoxyphenyl)-1,3,4-thiadiazol-2-yl)-2,3-dihydro-1H-inden-1-yl)-2-hydroxyacetamide]",0.05 to 0.5 nM
5,CC(C)Oc1ccc(-c2nnc(-c3cccc4c3CC[C@@H]4NC(=O)CN)s2)cc1C#N [Compound 9],0.05 to 0.5 nM
6,COCC(=O)N[C@@H]1CCc2c(-c3nnc(-c4ccc(OC(C)C)c(C#N)c4)s3)cccc21 [Compound 11],0.05 to 0.5 nM
7,COCC(=O)N[C@H]1CCc2c(-c3nnc(-c4ccc(OC(C)C)c(C#N)c4)s3)cccc21 [Compound 12],0.5 to 5 nM
8,CC(C)Oc1ccc(-c2nnc(-c3cccc4c3CC[C@@H]4NC(=O)CN(C)C)s2)cc1C#N [Compound 13],0.5 to 5 nM
9,"CC(=O)N[C@H]1CCc2c(-c3nnc(-c4ccc(OC(C)C)c(C#N)c4)s3)cccc21 [Compound 14, (S)-N-(4-(5-(3-cyano-4-isopropoxyphenyl)-1,3,4-thiadiazol-2-yl)-2,3-dihydro-1H-inden-1-yl)acetamide]",0.05 to 0.5 nM
10,"CC(=O)N[C@@H]1CCc2c(-c3nnc(-c4ccc(OC(C)C)c(C#N)c4)s3)cccc21 [Compound 15, (R)-N-(4-(5-(3-cyano-4-isopropoxyphenyl)-1,3,4-thiadiazol-2-yl)-2,3-dihydro-1H-inden-1-yl)acetamide]",0.05 to 0.5 nM
11,"COC(=O)N[C@H]1CCc2c(-c3nnc(-c4ccc(OC(C)C)c(C#N)c4)s3)cccc21 [Compound 16, (S)-methyl(4-(5-(3-cyano-4-isopropoxyphenyl)-1,3,4-thiadiazol-2-yl)-2,3-dihydro-1H-inden-1-yl)carbamate]",0.5 to 5 nM
12,"CC(C)Oc1ccc(-c2nnc(-c3cccc4c3CC[C@@H]4NCCO)s2)cc1C#N [Compound 18, (S)-5-(5-(1-((2-hydroxyethyl)amino)-2,3 dihydro-1H-inden-4-yl)-1,3,4-thiadiazol-2-yl)-2-isopropoxy-benzonitrile]",0.5 to 5 nM
13,COCCN[C@H]1CCc2c(-c3nnc(-c4ccc(OC(C)C)c(C#N)c4)s3)cccc21 [Compound 19],0.5 to 5 nM
14,"CC(C)Oc1ccc(-c2nnc(-c3cccc4c3CC[C@@H]4NCC(=O)N(C)C)s2)cc1C#N [Compound 21, (S)-2-((4-(5-(3-cyano-4-isopropoxyphenyl)-1,3,4-thiadiazol-2-yl)-2,3-dihydro-1H-inden-1-yl)amino)-N,N-dimethylacetamide hydrochloride]",0.5 to 5 nM
15,CC(C)Oc1ccc(-c2nnc(-c3cccc4c3CC[C@@H]4NCC(=O)N3CCCC3)s2)cc1C#N [Compound 23],0.5 to 5 nM
16,CC(C)Oc1ccc(-c2nnc(-c3cccc4c3CC[C@@H]4NCC(=O)N3CCOCC3)s2)cc1C#N [Compound 24],0.5 to 5 nM
17,CC(C)Oc1ccc(-c2nnc(-c3cccc4c3CC[C@@H]4NCC(=O)N3CCOCC3)s2)cc1C#N [Compound 25],0.05 to 0.5 nM
18,"CC(C)Oc1ccc(-c2nnc(-c3cccc4c3CC[C@@H]4NCC(=O)O)s2)cc1C#N [Compound 26, (S)-2-((4-(5-(3-cyano-4-isopropoxyphenyl)-1,3,4-thiadiazol-2-yl)-2,3-dihydro-1H-inden-1-yl)amino)acetic acid]",0.05 to 0.5 nM

row,Structure (SMILES),EC50
1,"CC(C)Oc1ccc(-c2nnc(-c3cccc4c3CC[C@@H]4NCc3ncc[nH]3)s2)cc1C#N [Compound 28, (S)-5-(5-(1-(((1H-imidazol-2-yl)methyl)amino)-2,3-dihydro-1H-inden-4-yl)-1,3,4-thiadiazol-2-yl)-2-isopropoxybenzonitrile]",0.05 to 0.5 nM
2,COCCN(CCOC)[C@H]1CCc2c(-c3nnc(-c4ccc(OC(C)C)c(C#N)c4)s3)cccc21 [Compound 30],0.5 to 5 nM
3,"CC(C)Oc1ccc(-c2nnc(-c3cccc4c3CC[C@@H]4NCCS(C)(=O)=O)s2)cc1C#N [Compound 31, (S)-2-isopropoxy-5-(5-(1-((2-(methylsulfonyl)ethyl)amino)-2,3-dihydro-1H-inden-4-yl)-1,3,4-thiadiazol-2-yl)benzonitrile]",0.05 to 0.5 nM
4,"CC(C)Oc1ccc(-c2nnc(-c3cccc4c3CC[C@@H]4NS(C)(=O)=O)s2)cc1C#N [Compound 33, (S)-N-(4-(5-(3-cyano-4-isopropoxyphenyl)-1,3,4-thiadiazol-2-yl)-2,3-dihydro-1H-inden-1-yl)methanesulfonamide]",0.05 to 0.5 nM
5,COCCS(=O)(=O)N[C@H]1CCc2c(-c3nnc(-c4ccc(OC(C)C)c(C#N)c4)s3)cccc21 [Compound 35],0.05 to 0.5 nM
6,CC(C)Oc1ccc(-c2nnc(-c3cccc4c3CC[C@@H]4NCC(=O)N3CCCC3)s2)cc1C#N [Compound 39],0.05 to 0.5 nM
7,"CC(C)Oc1ccc(-c2nnc(-c3cccc4c3CC[C@@H]4NS(=O)(=O)CC(=O)O)s2)cc1C#N [Compound 40, (S)-2-(N-(4-(5-(3-cyano-4-isopropoxyphenyl)-1,3,4-thiadiazol-2-yl)-2,3-dihydro-1H-inden-1-yl)sulfamoyl)acetic acid]",0.05 to 0.5 nM
8,"CC(C)Oc1ccc(-c2nnc(-c3cccc4c3CC[C@@H]4NS(=O)(=O)CC(=O)N(C)C)s2)cc1C#N [Compound 42, (S)-2-(N-(4-(5-(3-cyano-4-isopropoxyphenyl)-1,3,4-thiadiazol-2-yl)-2,3-dihydro-1H-inden-1-yl)sulfamoyl)-N,N-dimethylacetamide]",0.05 to 0.5 nM
9,CC(C)Oc1ccc(-c2nnc(-c3cccc4c3CC[C@@H]4NS(=O)(=O)CC(N)=O)s2)cc1C#N [Compound 44],< 0.05 nM
10,"CC(C)Oc1ccc(-c2nnc(-c3cccc4c3CC[C@@H]4NS(=O)(=O)CCO)s2)cc1C#N [Compound 45, (S)-N-(4-(5-(3-cyano-4-isopropoxyphenyl)-1,3,4-thiadiazol-2-yl)-2,3-dihydro-1H-inden-1-yl)-2-hydroxyethanesulfonamide]",0.05 to 0.5 nM
11,CC(C)Oc1ccc(-c2nnc(-c3cccc4c3CC[C@@H]4NC(=O)N3CC(C(=O)O)C3)s2)cc1C#N [Compound 50],0.05 to 0.5 nM
12,CC(C)Oc1ccc(-c2nnc(-c3cccc4c3CC[C@H]4NC(=O)N3CCCC3)s2)cc1C#N [Compound 52],0.05 to 0.5 nM
13,CC(C)Oc1ccc(-c2nnc(-c3cccc4c3CC[C@@H]4NC(=O)N3CCCC3)s2)cc1C#N [Compound 53],0.5 to 5 nM
14,CC(C)Oc1ccc(-c2nnc(-c3cccc4c3CC[C@@H]4NC(=O)N3CC[C@H](O)C3)s2)cc1C#N [Compound 54],0.05 to 0.5 nM
15,CC(C)Oc1ccc(-c2nnc(-c3cccc4c3CC[C@@H]4NC(=O)N3CC[C@H](O)C3)s2)cc1C#N [Compound 55],0.5 to 5 nM
16,CC(C)Oc1ccc(-c2nnc(-c3cccc4c3CC[C@@H]4NC(=O)N3CCC[C@H](O)C3)s2)cc1C#N [Compound 60],0.5 to 5 nM
17,CC(C)Oc1ccc(-c2nnc(-c3cccc4c3CC[C@@H]4NC(=O)N3CCC[C@H](O)C3)s2)cc1C#N [Compound 61],0.05 to 0.5 nM
